Literature values as cited in patent US12358215B2, “Binders and methods of binder jetting including branched polymer binders and articles made therefrom” (VIRGINIA TECH INTELLECTUAL PROPERTIES, INC., priority 2019, dated 2025).

solubility in cold water: only slightly soluble
Structure (SMILES): CC(=O)Nc1ccc(O)cc1 [Acetaminophen, acetaminophen]
